Measurements reported in patent US11931424B2, “Combination MCL-1 inhibitors with anti-body drug conjugates” (Gilead Sciences, Inc., priority 2021, dated 2024).

Tested on: panel of breast cancer cell lines
Experiment: Compound A with targeted agents and chemotherapies, 72-hour in vitro proliferation assays
Type: cell-based
Details: 72-hour proliferation
[1] = AU565 cell line, compound A × partner
[2] = BT-20 cell line, compound A × partner
[3] = BT-474 cell line, compound A × partner
[4] = BT-549 cell line, compound A × partner
[5] = CAL-51 cell line, compound A × partner
[6] = CAL-85-1 cell line, compound A × partner
[7] = CAL-120 cell line, compound A × partner
[8] = CAL-148 cell line, compound A × partner
[9] = CAMA-1 cell line, compound A × partner
[10] = DU-4475 cell line, compound A × partner
[11] = EVSA-T cell line, compound A × partner
[12] = HCC1143 cell line, compound A × partner
[13] = MCF7 cells, Compound A × partner agent
[14] = MDA-MB-175-VII cells, Compound A × partner agent
[15] = MDA-MB-231 cells, Compound A × partner agent
[16] = MDA-MB-361 cells, Compound A × partner agent
[17] = MDA-MB-436 cells, Compound A × partner agent
[18] = MDA-MB-453 cells, Compound A × partner agent
[19] = MDA-MB-468 cells, Compound A × partner agent
[20] = SK-BR-3 cells, Compound A × partner agent
[21] = SUM159PT cells, combination of compound A with the named agent
[22] = T47D cells, combination of compound A with the named agent
[23] = ZR-75-1 cells, combination of compound A with the named agent
[24] = ZR-75-30 cells, combination of compound A with the named agent

N.N.[Cl][Pt][Cl] [Cisplatin]
Best CI [1]: 0.79
Bliss Volume [1]: 7.67
HSA volume [1]: −6.49
Loewe Volume [1]: −5.19
Synergy Score [1]: 1.66
Best CI [2]: 0.90
Bliss Volume [2]: 13.49
HSA volume [2]: −0.68
Loewe Volume [2]: −2.71
Synergy Score [2]: 2.27
Best CI [3]: 0.47
Bliss Volume [3]: −2.63
HSA volume [3]: −4.63
Loewe Volume [3]: −4.42
Synergy Score [3]: 2.85
Best CI [4]: 1.01
Bliss Volume [4]: 7.35
HSA volume [4]: 2.86
Loewe Volume [4]: 4.16
Synergy Score [4]: 6.80
Best CI [5]: 0.48
Bliss Volume [5]: 7.18
HSA volume [5]: 4.36
Loewe Volume [5]: 6.98
Synergy Score [5]: 9.30
Best CI [6]: 1.09
Bliss Volume [6]: 6.84
HSA volume [6]: 4.63
Loewe Volume [6]: 4.66
Synergy Score [6]: 6.29
Best CI [7]: 0.19
Bliss Volume [7]: 1.51
HSA volume [7]: 0.51
Loewe Volume [7]: 1.48
Synergy Score [7]: 1.13
Best CI [8]: 0.13
Bliss Volume [8]: 19.20
HSA volume [8]: 19.03
Loewe Volume [8]: 18.76
Synergy Score [8]: 37.06
Best CI [9]: 0.23
Bliss Volume [9]: 16.63
HSA volume [9]: 9.61
Loewe Volume [9]: 9.28
Synergy Score [9]: 18.49
Best CI [10]: 0.29
Bliss Volume [10]: 14.10
HSA volume [10]: 5.48
Loewe Volume [10]: 5.54
Synergy Score [10]: 7.00
Best CI [11]: 0.39
Bliss Volume [11]: 20.06
HSA volume [11]: 3.60
Loewe Volume [11]: 1.90
Synergy Score [11]: 2.53
Best CI (HCC38, compound A × partner): 0.60
Best CI Level (HCC38, compound A × partner): 115
Bliss Volume (HCC38, compound A × partner): 8.46
HSA volume (HCC38, compound A × partner): 3.08
Loewe Volume (HCC38, compound A × partner): 2.06
Synergy Score (HCC38, compound A × partner): 6.47
Best CI (HCC70, compound A × partner): 0.45
Best CI Level (HCC70, compound A × partner): 175
Bliss Volume (HCC70, compound A × partner): 18.00
HSA volume (HCC70, compound A × partner): 4.42
Loewe Volume (HCC70, compound A × partner): 2.24
Synergy Score (HCC70, compound A × partner): 9.16
Best CI [12]: 0.39
Bliss Volume [12]: −0.20
HSA volume [12]: −5.78
Loewe Volume [12]: −3.31
Synergy Score [12]: 2.45
Best CI (HCC1569, compound A × partner): 0.43
Best CI Level (HCC1569, compound A × partner): 25
Bliss Volume (HCC1569, compound A × partner): 1.33
HSA volume (HCC1569, compound A × partner): −1.41
Loewe Volume (HCC1569, compound A × partner): −2.74
Synergy Score (HCC1569, compound A × partner): 1.82
Best CI (HCC1806, compound A × partner): 0.22
Best CI Level (HCC1806, compound A × partner): 70
Bliss Volume (HCC1806, compound A × partner): 8.46
HSA volume (HCC1806, compound A × partner): 3.81
Loewe Volume (HCC1806, compound A × partner): 5.93
Synergy Score (HCC1806, compound A × partner): 7.76
Best CI (HCC1937, compound A × partner): 1.07
Best CI Level (HCC1937, compound A × partner): 105
Bliss Volume (HCC1937, compound A × partner): 1.32
HSA volume (HCC1937, compound A × partner): −1.15
Loewe Volume (HCC1937, compound A × partner): −0.59
Synergy Score (HCC1937, compound A × partner): 1.75
Best CI (HCC1954, compound A × partner): 0.84
Best CI Level (HCC1954, compound A × partner): 180
Bliss Volume (HCC1954, compound A × partner): 5.89
HSA volume (HCC1954, compound A × partner): −0.89
Loewe Volume (HCC1954, compound A × partner): −1.88
Synergy Score (HCC1954, compound A × partner): 5.58
Best CI (HCC2218, compound A × partner): 0.54
Best CI Level (HCC2218, compound A × partner): 165
Bliss Volume (HCC2218, compound A × partner): 9.34
HSA volume (HCC2218, compound A × partner): 2.71
Loewe Volume (HCC2218, compound A × partner): −0.66
Synergy Score (HCC2218, compound A × partner): 7.99
Best CI (HDQ-P1, compound A × partner): 0.60
Best CI Level (HDQ-P1, compound A × partner): 30
Bliss Volume (HDQ-P1, compound A × partner): 0.53
HSA volume (HDQ-P1, compound A × partner): −0.23
Loewe Volume (HDQ-P1, compound A × partner): 0.64
Synergy Score (HDQ-P1, compound A × partner): 1.46
Best CI (HMC-1-8, compound A × partner): 0.35
Best CI Level (HMC-1-8, compound A × partner): 180
Bliss Volume (HMC-1-8, compound A × partner): 20.03
HSA volume (HMC-1-8, compound A × partner): 7.01
Loewe Volume (HMC-1-8, compound A × partner): 6.38
Synergy Score (HMC-1-8, compound A × partner): 14.62
Best CI (JIMT-1, compound A × partner): 0.61
Best CI Level (JIMT-1, compound A × partner): 20
Bliss Volume (JIMT-1, compound A × partner): 0.69
HSA volume (JIMT-1, compound A × partner): −1.64
Loewe Volume (JIMT-1, compound A × partner): −0.53
Synergy Score (JIMT-1, compound A × partner): 1.21
Best CI (KPL-1, compound A × partner): 0.76
Best CI Level (KPL-1, compound A × partner): 110
Bliss Volume (KPL-1, compound A × partner): −0.41
HSA volume (KPL-1, compound A × partner): 0.95
Loewe Volume (KPL-1, compound A × partner): 0.45
Synergy Score (KPL-1, compound A × partner): 4.51
Best CI [13]: 0.45
Best CI Level [13]: 150
Bliss Volume [13]: 11.15
HSA volume [13]: 4.64
Loewe Volume [13]: 3.51
Synergy Score [13]: 6.98
Best CI [14]: 0.49
Best CI Level [14]: 60
Bliss Volume [14]: 9.70
HSA volume [14]: −1.47
Loewe Volume [14]: 2.49
Synergy Score [14]: 4.03
Best CI [15]: 0.34
Best CI Level [15]: 70
Bliss Volume [15]: 5.98
HSA volume [15]: 4.74
Loewe Volume [15]: 6.47
Synergy Score [15]: 4.48
Best CI [16]: 0.81
Best CI Level [16]: 165
Bliss Volume [16]: 3.24
HSA volume [16]: −1.91
Loewe Volume [16]: −2.31
Synergy Score [16]: 3.36
Best CI [17]: 1.18
Best CI Level [17]: 120
Bliss Volume [17]: 2.08
HSA volume [17]: 1.62
Loewe Volume [17]: 1.58
Synergy Score [17]: 2.45
Best CI [18]: 0.34
Best CI Level [18]: 70
Bliss Volume [18]: 13.82
HSA volume [18]: 4.06
Loewe Volume [18]: 4.70
Synergy Score [18]: 9.66
Best CI [19]: 0.53
Best CI Level [19]: 105
Bliss Volume [19]: 27.91
HSA volume [19]: 5.89
Loewe Volume [19]: 4.42
Synergy Score [19]: 8.65
Best CI [20]: 0.14
Best CI Level [20]: 150
Bliss Volume [20]: 19.53
HSA volume [20]: 6.00
Loewe Volume [20]: 5.11
Synergy Score [20]: 10.90
Best CI [21]: 0.79
Best CI Level [21]: 20
Bliss Volume [21]: −1.91
HSA volume [21]: −4.36
Loewe Volume [21]: −4.20
Synergy Score [21]: 0.41
Best CI [22]: 0.79
Best CI Level [22]: 80
Bliss Volume [22]: −0.02
HSA volume [22]: 0.03
Loewe Volume [22]: 0.73
Synergy Score [22]: 3.05
Best CI [23]: 0.88
Best CI Level [23]: 155
Bliss Volume [23]: 9.45
HSA volume [23]: 7.38
Loewe Volume [23]: 8.42
Synergy Score [23]: 12.40
Best CI [24]: 0.24
Best CI Level [24]: 95
Bliss Volume [24]: 14.77
HSA volume [24]: 8.48
Loewe Volume [24]: 9.66
Synergy Score [24]: 16.44
